Assay results: ChEMBL document CHEMBL1177715, “Design and synthesis of androgen receptor full antagonists bearing a p-carborane cage: promising ligands for anti-androgen withdrawal syndrome” (J Med Chem, 2010)
The source made the active and inactive calls. No cut-off for these calls is given here.

Key:
SC-3 = experiment: Growth inhibition of mouse SC3 cells after 3 days by WST-8 assay; type: functional, cell-based; conditions: SC-3, 72 h
LNCaP = experiment: Growth stimulatory activity of human LNCAP cells; type: functional, cell-based

SMILES	IC50 (SC-3)	Activity (LNCaP)
C[C@](O)(CS(=O)(=O)c1ccc(F)cc1)C(=O)Nc1ccc(C#N)c(C(F)(F)F)c1 [(R)-BICALUTAMIDE]	0.14 µM	–
CC(C)C(=O)Nc1ccc([N+](=O)[O-])c(C(F)(F)F)c1 [FLUTAMIDE]	0.72 µM	Active
CC(C)(O)C(=O)Nc1ccc([N+](=O)[O-])c(C(F)(F)F)c1 [HYDROXYFLUTAMIDE]	0.24 µM	Active
